Results from publication PMC10111022, “Comparison of pharmacological inhibitors of lysine-specific demethylase 1 in glioblastoma stem cells reveals inhibitor-specific efficacy profiles” (Frontiers in Neurology, 2023).

Experiments:
[1] = test system: MDA-GSC 17; assay: Cell viability dose response (IC50), MDA-GSC 17; assay type: cell-based; conditions: Homo sapiens, mean of three independent experiments
Experimental: (§1) MDA-GSCs were plated at 50,000 cells/well into 12-well plates at and allowed to grow for 5 days until neurospheres were formed. The cells were then treated with either TCP, GSK-LSD1, or RN-1 at various concentrations for 5 days. Next, the cells were collected and neurospheres were dissociated with Accutase (BioLegend; San Diego, CA). Cell viability was determined using a trypan dye exclusion assay and read with the Vi-Cell XR Cell Viability Analyzer (Beckman Coulter; Brea, CA). NHAs were plated at 50,000 cells/well into 12-well plates and allowed to adhere overnight. The following day, NHAs were treated with the LSD1 inhibitors. After 5 days, the cells were detached using TrypLE and assessed with the trypan blue dye exclusion assay.
(§2) The alamarBlue cell viability (Bio-Rad; Hercules, CA) was performed on the MDA-GSCs according to the manufacturer’s protocol. The cells were plated at 5,000 cell/well into a 96-well plate and allowed to grow for 5 days. After 5 days, the alamarBlue reagent was added and fluorescence was measured with the Synergy 2 (BioTek Instruments; Winooski, VT) plate reader according to the manufacturer’s protocol.

[2] = test system: MDA-GSC 6–27; assay: Cell viability dose response (IC50), MDA-GSC 6–27; assay type: cell-based; conditions: Homo sapiens, mean of three independent experiments
Experimental: as §1, §2

[3] = test system: MDA-GSC 23; assay: Cell viability dose response (IC50), MDA-GSC 23; assay type: cell-based; conditions: Homo sapiens, mean of three independent experiments
Experimental: as §1, §2

[4] = test system: MDA-GSC20 orthotopic xenograft; assay: Intracranial orthotopic xenograft model, bioluminescence tumor burden and survival; assay type: in vivo, athymic nude mice
Experimental: All animal experiments were approved by the University of Texas MD Anderson Cancer Center Institutional Animal Care and Use Committee (IACUC) under protocol 638 (P.I. Chandra). An equal number of male and female athymic nude mice aged 4–6 weeks old were bolted with guide screws by MD Anderson’s Brain Tumor Center Animal Core as previously described ([16]). Ketamine/xylazine was administered for anesthesia and buprenorphine or buprenorphine sustained-release (SR) was administered for analgesia during and after the surgery. MDA-GSC20 luciferase labelled cells were resuspended in PBS and 500,000 cells were intracranially implanted into each mouse via guide screw. To monitor tumor engraftment and tumor progression throughout treatment, each mouse was imaged weekly using an IVIS 200 imager (Perkin Elmer; Waltham, MA). Mice were anesthetized via inhalation of isoflurane and injected with 200 μL of D-Luciferin (GoldBio; St Louis, MO) subcutaneously. Bioluminescence signal in the mice was read and reported as photons/s.
Once confirmation of intracranial tumor engraftment at 7 days post-engraftment, the mice were equally randomized into groups to receive either GSK-LSD1 or the vehicle control. The mice received GSK-LSD1 1 mg/kg diluted in DMSO and PBS (5 and 95%, respectively) via intraperitoneal injection (200 μL/mouse) while the control mice received the untreated vehicle in parallel. In accordance with the approved IACUC protocol (No: 638-RN03) at MD Anderson Cancer Center, treatment continued until the mice succumbed to tumor burden and were found in a moribund condition as determined by neurological impairment (hydrocephalus, seizures, inactivity, and/or ataxia) or morbidity (hunched posture or weight loss). At this time mice were euthanized by both carbon dioxide exposure and cervical dislocation. […]

[5] = Complete blood count at day 50 in xenograft mice; assay type: in vivo, athymic nude mice
Experimental: (§3) Once confirmation of intracranial tumor engraftment at 7 days post-engraftment, the mice were equally randomized into groups to receive either GSK-LSD1 or the vehicle control. The mice received GSK-LSD1 1 mg/kg diluted in DMSO and PBS (5 and 95%, respectively) via intraperitoneal injection (200 μL/mouse) while the control mice received the untreated vehicle in parallel. In accordance with the approved IACUC protocol (No: 638-RN03) at MD Anderson Cancer Center, treatment continued until the mice succumbed to tumor burden and were found in a moribund condition as determined by neurological impairment (hydrocephalus, seizures, inactivity, and/or ataxia) or morbidity (hunched posture or weight loss). At this time mice were euthanized by both carbon dioxide exposure and cervical dislocation. Flow cytometric characterization of immune cell subsets was carried out in blood samples obtained from mice (four control mice and six GSK-LSD1 mice) in each group at day 50 via cardiac puncture and the sample was processed using Ficoll (GE Healthcare; Chicago, IL) centrifugation to collect the peripheral blood mononuclear cells (PBMCs). Next, PBMCs were stained with the Ghost Dye Violet (Tonbo; San Diego, CA) and then incubated with antibodies at 4°C for 25 min before analysis. The antibodies anti-NKG2D APC (Biolegend #320807), CD16-PE-Cy7 (ThermoFisher #25–0168-42), CD56-PE (BD Biosciences #345812), anti-CD3-FITC (Biolegend; #100305), CD4-PerCP (ThermoFisher #MHCD0431), anti-CD8-ACP-Cy7 (Biolegend #344713), and anti-SLAMF7-PE (eBioscience #12–2,229-42) were used in concentrations recommended per manufacturer’s instruction. Samples were washed and resuspended in FACS buffer for analysis on a Fortessa flow cytometer (BD Biosciences; Haryana, India).
Given the effect on tumor regression required almost 2 months of treatment, we sought to determine if any hematological toxicities were present from the prolonged exposure to LSD1 inhibition. At day 50, a subset of mice from each group were sacrificed and blood was collected for evaluation with a Complete Blood Count (CBC) to compare different populations of blood cells. […] However, the platelet count in the GSK-LSD1 receiving mice is higher compared to the control and may be secondary to the underlying tumor burden (Figure 5F). The WBC differential further confirmed the absence of hematological toxicity with no difference between the GSK-LSD1 and the control group in any of the individual cell types (Figure 5G). […] In parallel, the peripheral blood mononuclear cells (PBMCs) were also isolated and probed to assess the effect of GSK-LSD1. Prior studies of LSD1 inhibition via pharmacological inhibitors prompted the assessment of GSK-LSD1 effect on different subpopulations of natural killer (NK) cells and T-cells ([26], [30]).

[6] = test system: NK or T-cells; assay: Flow cytometry of peripheral blood NK and T-cell subsets at day 50; assay type: in vivo, athymic nude mice; conditions: peripheral blood mononuclear cells
Experimental: as §3, with “The antibodies anti-NKG2D APC (Biolegend #320807), CD16-PE-Cy7 (ThermoFisher #25–0168-42), CD56-PE (BD Biosciences #345812), anti-CD3-FITC (Biolegend; #100305), CD4-PerCP (ThermoFisher #MHCD0431), anti-CD8-ACP-Cy7 (Biolegend #344713), and anti-SLAMF7-PE (eBioscience #12–2,229-42) were used in concentrations recommended per manufacturer’s instruction. Samples were washed and resuspended in FACS buffer for analysis on a Fortessa flow cytometer (BD Biosciences; Haryana, India).” left out

[7] = test system: MDA-GSC7-2; assay: qPCR of resistance-related genes, MDA-GSC7-2; assay type: cell-based, Human; conditions: MDA-GSC7-2 (sensitive)
Experimental: Total RNA was extracted using RNeasy Plus Mini Kit (Qiagen; Hilden, Germany) following the manufacturer’s protocol. cDNA was synthesized with the iScript cDNA synthesis kit (Bio-Rad; Hercules, CA), qPCR was performed using Forget-Me-Not EvaGreen qPCR kit (Biotium; Fremont, CA), and samples were analyzed with the LightCycler96 (Roche; Basel, Switzerland). Cq values were normalized to PPIA and reported as relative fold change from untreated control.

c1ccc([C@@H]2C[C@H]2NC2CCNCC2)cc1 [GSK-LSD1]
IC50 [1]: 253 µM | IC50 [2]: 598 µM | IC50 [3]: > 750 µM | rate of tumor progression ([4]; 1 mg/kg intraperitoneal, week 11, vs control mice): lower rate of tumor progression | tumor burden (bioluminescence) ([4]; 1 mg/kg intraperitoneal, week seven, vs control): strong regression in tumor burden | overall survival ([4]; continued dosing beyond week 11): ineffective to improve overall survival | leukopenia or erythropenia (CBC) ([5]; day 50, 1 mg/kg intraperitoneal, vs untreated mice): no evidence of leukopenia or erythropenia | platelet count ([5]; day 50, compared to the control): higher | WBC differential, individual cell types ([5]; day 50, vs control group): no difference | RBC indices ([5]; day 50, except for red cell distribution width (RDW)): largely demonstrate no effect | cytotoxic effects on NK or T-cells [6]: does not have cytotoxic effects | expression of resistance-related genes (FTH1, RAB39B, HKDC1, FAM213A) [7]: inappreciable effects
